The values below come from US10556905B2, “Processes for preparing a diazabicyclooctane compound” (priority 2012, dated 2020).

The target in assay [1] is T1, OXA-2 (Escherichia coli, UniProt P0A1V9).
T1 construct: AmpC, TEM-1, KPC-2 or OXA-2 domain excluding signal peptide was amplified with PCR; made in house; host or cells: Escherichia coli BL21 (DE3), pET-28b(+)
Briefly: biochemical. Also on record: species or system P. aeruginosa.

Assay [2] has as its target T2, TEM-1 (Escherichia coli, UniProt P62593).
T2 construct: AmpC, TEM-1, KPC-2 or OXA-2 domain excluding signal peptide was amplified with PCR; made in house; host or cells: Escherichia coli BL21 (DE3), pET-28b(+)
As to the kind of experiment: β-Lactamase inhibitory activity (nitrocefin hydrolysis), TEM-1. In kind it is biochemical. To be noted: TEM-1 0.1 nM, 100 μM nitrocefin, pre-incubation 30° C. 10 minutes. The essentials: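 Scored as letter classes from <0.1 μM (A) through ≥10 μM (E). Nitrocefin breakdown (100 μM final) by E. coli-expressed, signal-peptide-free TEM-1 was followed at 492 nm after 20 min at 30° C. The buffer was 50 mM phosphate pH 7.0, 10 μg/mL BSA, 2.5% DMSO.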

In assay [3] the target is T3, KPC-2 (Klebsiella pneumoniae, UniProt Q9F663).
T3 construct: AmpC, TEM-1, KPC-2 or OXA-2 domain excluding signal peptide was amplified with PCR; made in house; host or cells: Escherichia coli BL21 (DE3), pET-28b(+)
Briefly: β-Lactamase inhibitory activity (nitrocefin hydrolysis), KPC-2. In kind it is biochemical. Conditions: KPC-2 0.5 nM, 100 μM nitrocefin, pre-incubation 30° C. 10 minutes.

In assay [4] the target is T4, AmpC (Pseudomonas aeruginosa, UniProt P24735).
T4 construct: AmpC, TEM-1, KPC-2 or OXA-2 domain excluding signal peptide was amplified with PCR; made in house; host or cells: Escherichia coli BL21 (DE3), pET-28b(+)
As to the kind of experiment: biochemical.

[5] abbreviates: OXA-2 2 nM, 100 μM nitrocefin, pre-incubation 30° C. 10 minutes, read-out: β-Lactamase inhibitory activity OXA-2 (IC50).

Read-outs that look alike come from different tables or passages of the source. A value given as a limit tells only on which side of the number the result lay.

T4 sequence (P24735 27-397): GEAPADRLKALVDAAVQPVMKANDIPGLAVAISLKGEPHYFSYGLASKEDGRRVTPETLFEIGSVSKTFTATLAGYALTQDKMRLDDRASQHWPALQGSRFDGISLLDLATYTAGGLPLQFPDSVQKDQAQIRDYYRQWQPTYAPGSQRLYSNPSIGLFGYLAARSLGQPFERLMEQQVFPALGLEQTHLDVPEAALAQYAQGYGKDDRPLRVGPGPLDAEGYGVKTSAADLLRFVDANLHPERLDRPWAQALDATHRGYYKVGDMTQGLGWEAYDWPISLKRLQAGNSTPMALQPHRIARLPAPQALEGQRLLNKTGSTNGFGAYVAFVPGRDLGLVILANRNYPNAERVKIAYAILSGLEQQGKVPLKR
T3 sequence (Q9F663 25-293, looked up): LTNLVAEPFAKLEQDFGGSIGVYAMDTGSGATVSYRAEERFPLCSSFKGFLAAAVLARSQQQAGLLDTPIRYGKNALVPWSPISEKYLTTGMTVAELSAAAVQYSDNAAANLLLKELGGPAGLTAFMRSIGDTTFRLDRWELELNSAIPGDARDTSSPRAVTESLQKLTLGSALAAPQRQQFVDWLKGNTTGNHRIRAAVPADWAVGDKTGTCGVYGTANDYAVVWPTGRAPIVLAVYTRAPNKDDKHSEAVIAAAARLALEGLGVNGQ
T1 sequence (P0A1V9 22-275): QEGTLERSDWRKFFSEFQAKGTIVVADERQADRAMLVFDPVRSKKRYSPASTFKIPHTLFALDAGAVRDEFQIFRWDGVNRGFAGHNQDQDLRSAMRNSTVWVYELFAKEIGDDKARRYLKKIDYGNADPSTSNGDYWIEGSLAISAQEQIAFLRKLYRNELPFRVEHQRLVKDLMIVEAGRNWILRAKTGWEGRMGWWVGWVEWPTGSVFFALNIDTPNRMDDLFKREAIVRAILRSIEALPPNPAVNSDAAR
T2 sequence (P62593 24-286 limits assumed): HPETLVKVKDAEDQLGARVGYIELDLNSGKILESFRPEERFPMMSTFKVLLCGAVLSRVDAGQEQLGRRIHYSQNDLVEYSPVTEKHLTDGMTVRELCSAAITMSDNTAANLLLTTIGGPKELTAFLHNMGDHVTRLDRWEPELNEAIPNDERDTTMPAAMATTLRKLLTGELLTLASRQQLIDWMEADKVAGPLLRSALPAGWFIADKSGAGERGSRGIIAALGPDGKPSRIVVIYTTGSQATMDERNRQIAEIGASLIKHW

On to `O=C(NOCCN1CCCNCC1)[C@@H]1CC[C@@H]2CN1C(=O)N2OS(=O)(=O)O` [Example 74, (2S,5R)-7-Oxo-N-[2-(1,4-diazepan-1-yl)ethoxy]-6-(sulfooxy)-1,6-diazabicyclo[3.2.1]octane-2-carboxamide], for which the IC50 (in general, the concentration at which inhibition is half-maximal) in assay [1] (setting [5]) was 100 to 1000 nM; in assay [2], under 100 nM; in assay [3], 100 to 1000 nM; in assay [4], under 100 nM.
Turning to `O=C(NOC[C@@H]1CCN1)[C@@H]1CC[C@@H]2CN1C(=O)N2OS(=O)(=O)O` [Example 75, (2S,5R)—N-[(2S)-Azetidin-2-ylmethoxy]-7-oxo-6-(sulfooxy)-1,6-diazabicyclo[3.2.1]octane-2-carboxamide], the IC50 is 1000 to 3000 nM in assay [1] (setting [5]), under 100 nM in assay [2], 100 to 1000 nM in assay [3] and 100 to 1000 nM in assay [4].
With `O=C(NOC[C@@H]1CCCN1)[C@@H]1CC[C@@H]2CN1C(=O)N2OS(=O)(=O)O` [Example 76, (2S,5R)-7-Oxo-N-[(2S)-pyrrolidin-2-ylmethoxy]-6-(sulfooxy)-1,6-diazabicyclo[3.2.1]octane-2-carboxamide], the IC50 in assay [1] (setting [5]) was 100 to 1000 nM; in assay [2], under 100 nM; in assay [3], 100 to 1000 nM; in assay [4], 100 to 1000 nM.
Turning to `O=C(NOC[C@H]1CCCN1)[C@@H]1CC[C@@H]2CN1C(=O)N2OS(=O)(=O)O` [Example 77, (2S,5R)-7-Oxo-N-[(2R)-pyrrolidin-2-ylmethoxy]-6-(sulfooxy)-1,6-diazabicyclo[3.2.1]octane-2-carboxamide], the IC50 in assay [1] (setting [5]) is 100 to 1000 nM; in assay [2], under 100 nM; in assay [3], 100 to 1000 nM; in assay [4] it was 100 to 1000 nM.
Regarding `O=C(NOC[C@@H]1CCCCN1)[C@@H]1CC[C@@H]2CN1C(=O)N2OS(=O)(=O)O` [Example 78, (2S,5R)-7-Oxo-N-[(2S)-piperidine-2-ylmethoxy]-6-(sulfooxy)-1,6-diazabicyclo[3.2.1]octane-2-carboxamide], the half-maximal inhibitory concentration (IC50) in assay [1] (setting [5]) was 1000 to 3000 nM; in assay [2], under 100 nM; in assay [3], 1000 to 3000 nM; in assay [4], 100 to 1000 nM.
On to `O=C(NOC1CNC1)[C@@H]1CC[C@@H]2CN1C(=O)N2OS(=O)(=O)O` [Example 79, (2S,5R)—N-(Azetidin-3-yloxy)-7-oxo-6-(sulfooxy)-1,6-diazabicyclo[3.2.1]octane-2-carboxamide], for which the IC50 is 1000 to 3000 nM in assay [1] (setting [5]), under 100 nM in assay [2], 1000 to 3000 nM in assay [3] and 100 to 1000 nM in assay [4].
For `O=C(NO[C@@H]1CCNC1)[C@@H]1CC[C@@H]2CN1C(=O)N2OS(=O)(=O)O` [Example 80, (2S,5R)-7-Oxo-N-[(3R)-pyrrolidin-3-yloxy]-6-(sulfooxy)-1,6-diazabicyclo[3.2.1]octane-2-carboxamide], the IC50 in assay [1] (setting [5]) is 100 to 1000 nM; in assay [2], under 100 nM; in assay [3], 1000 to 3000 nM; in assay [4], 100 to 1000 nM.
On to `O=C(NO[C@H]1CCNC1)[C@@H]1CC[C@@H]2CN1C(=O)N2OS(=O)(=O)O` [Example 81, (2S,5R)-7-Oxo-N-[(3S)-pyrrolidin-3-yloxy]-6-(sulfooxy)-1,6-diazabicyclo[3.2.1]octane-2-carboxamide], for which the IC50 in assay [1] (setting [5]) is 1000 to 3000 nM; in assay [2], under 100 nM; in assay [3] it was 100 to 1000 nM; in assay [4] it was under 100 nM.
For `O=C(NOCC1CNC1)[C@@H]1CC[C@@H]2CN1C(=O)N2OS(=O)(=O)O` [Example 82, (2S,5R)—N-(Azetidin-3-ylmethoxy)-7-oxo-6-(sulfooxy)-1,6-diazabicyclo[3.2.1]octane-2-carboxamide], the IC50 in assay [1] (setting [5]) is 100 to 1000 nM; in assay [2], under 100 nM; in assay [3], 100 to 1000 nM; in assay [4], under 100 nM.
For `O=C(NOC[C@@H]1CCCNC1)[C@@H]1CC[C@@H]2CN1C(=O)N2OS(=O)(=O)O` [Example 83, (2S,5R)-7-Oxo-N-[(3R)-piperidine-3-ylmethoxy]-6-(sulfooxy)-1,6-diazabicyclo[3.2.1]octane-2-carboxamide], the IC50 is 100 to 1000 nM in assay [1] (setting [5]), under 100 nM in assay [2], 100 to 1000 nM in assay [3] and under 100 nM in assay [4].
In the case of `O=C(NOC1CCNCC1)[C@@H]1CC[C@@H]2CN1C(=O)N2OS(=O)(=O)O` [Example 84, (2S,5R)-7-Oxo-N-(piperidine-4-yloxy)-6-(sulfooxy)-1,6-diazabicyclo[3.2.1]octane-2-carboxamide], the IC50 in assay [1] (setting [5]) was 100 to 1000 nM; in assay [2] it was under 100 nM; in assay [3] it was 1000 to 3000 nM; in assay [4] it was under 100 nM.
`O=C(NOCC1CCNCC1)[C@@H]1CC[C@@H]2CN1C(=O)N2OS(=O)(=O)O` [Example 85, (2S,5R)-7-Oxo-N-(piperidine-4-ylmethoxy)-6-(sulfooxy)-1,6-diazabicyclo[3.2.1]octane-2-carboxamide]: the IC50 in assay [1] (setting [5]) is 100 to 1000 nM; in assay [2] it was under 100 nM; in assay [3], 100 to 1000 nM; in assay [4] it was under 100 nM.
As for `O=C(NOCCn1cccc1)[C@@H]1CC[C@@H]2CN1C(=O)N2OS(=O)(=O)O` [Example 87, Sodium (2S,5R)-7-oxo-N-[2-(1H-pyrrol-1-yl)ethoxy]-6-(sulfooxy)-1,6-diazabicyclo[3.2.1]octane-2-carboxamide], the IC50 in assay [1] is 100 to 1000 nM; in assay [2] it was under 100 nM; in assay [3] it was under 100 nM; in assay [4] it was under 100 nM.
`O=C(NOCCn1ccnc1S(=O)(=O)O)[C@@H]1CC[C@@H]2CN1C(=O)N2OS(=O)(=O)O` [Example 88, Disodium 1-{2-[({[(2S,5R)-7-oxo-6-(sulfonateoxy)-1,6-diazabicyclo[3.2.1]oct-2-yl]carbonyl}amino)oxy]ethyl}-1H-Imidazol-2-sulfonate]: the half-inhibitory concentration (IC50) in assay [1] (setting [5]) was 100 to 1000 nM; in assay [2] it was under 100 nM; in assay [3], 100 to 1000 nM; in assay [4], 100 to 1000 nM.
In the case of `CN(C)C(=O)CONC(=O)[C@@H]1CC[C@@H]2CN1C(=O)N2OS(=O)(=O)O` [Example 89, Sodium (2S,5R)—N-[2-(dimethylamino)-2-oxoethoxy]-7-oxo-6-(sulfooxy)-1,6-diazabicyclo[3.2.1]octane-2-carboxamide], the IC50 in assay [1] was 100 to 1000 nM; in assay [2] it was under 100 nM; in assay [3], under 100 nM; in assay [4] it was under 100 nM.
With `O=C(NOCC(=O)N1CCNCC1)[C@@H]1CC[C@@H]2CN1C(=O)N2OS(=O)(=O)O` [Example 90, (2S,5R)-7-Oxo-N-[2-oxo-2-(piperazin-1-yl)ethoxy]-6-(sulfooxy)-1,6-diazabicyclo[3.2.1]octane-2-carboxamide], the IC50 in assay [1] (setting [5]) was 100 to 1000 nM; in assay [2] it was under 100 nM; in assay [3], 100 to 1000 nM; in assay [4], under 100 nM.
For the compound `O=C(NOCC(=O)N1CCOCC1)[C@@H]1CC[C@@H]2CN1C(=O)N2OS(=O)(=O)O` [Example 91, Sodium (2S,5R)—N-[2-(morpholin-4-yl)-2-oxoethoxy]-7-oxo-6-(sulfooxy)-1,6-diazabicyclo[3.2.1]octane-2-carboxamide], the IC50 was 100 to 1000 nM in assay [1], under 100 nM in assay [2], under 100 nM in assay [3] and under 100 nM in assay [4].
`O=C(NOCC(=O)N1CCCNCC1)[C@@H]1CC[C@@H]2CN1C(=O)N2OS(=O)(=O)O` [Example 92, (2S,5R)—N-[2-(1,4-Diazepan-1-yl)-2-oxoethoxy]-7-oxo-6-(sulfooxy)-1,6-diazabicyclo[3.2.1]octane-2-carboxamide]: the IC50 was 100 to 1000 nM in assay [1] (setting [5]), under 100 nM in assay [2], 100 to 1000 nM in assay [3] and under 100 nM in assay [4].
As to `O=C(NOCCN1CCCC1=O)[C@@H]1CC[C@@H]2CN1C(=O)N2OS(=O)(=O)O` [Example 93, Sodium (2S,5R)-7-oxo-N-[2-(2-oxopyrrolidin-1-yl)ethoxy]-6-(sulfooxy)-1,6-diazabicyclo[3.2.1]octane-2-carboxamide], the IC50 in assay [1] is 100 to 1000 nM; in assay [2] it was under 100 nM; in assay [3], 100 to 1000 nM; in assay [4], under 100 nM.
As to `O=C(NOCCN1CCNC1=O)[C@@H]1CC[C@@H]2CN1C(=O)N2OS(=O)(=O)O` [Example 94, Sodium (2S,5R)-7-oxo-N-[2-(2-oxoimidazolidin-1-yl)ethoxy]-6-(sulfooxy)-1,6-diazabicyclo[3.2.1]octane-2-carboxamide], the IC50 was 100 to 1000 nM in assay [1], under 100 nM in assay [2], 100 to 1000 nM in assay [3] and under 100 nM in assay [4].
Turning to `O=C(NOCCO)[C@@H]1CC[C@@H]2CN1C(=O)N2OS(=O)(=O)O` [Example 95, Sodium (2S,5R)—N-(2-hydroxyethoxy)-7-oxo-6-(sulfooxy)-1,6-diazabicyclo[3.2.1]octane-2-carboxamide], the IC50 in assay [1] was 1000 to 3000 nM; in assay [2] it was under 100 nM; in assay [3], under 100 nM; in assay [4] it was under 100 nM.
In the case of `COCCONC(=O)[C@@H]1CC[C@@H]2CN1C(=O)N2OS(=O)(=O)O` [Example 96, Sodium (2S,5R)—N-(2-methoxyethoxy)-7-oxo-6-(sulfooxy)-1,6-diazabicyclo[3.2.1]octane-2-carboxamide], the IC50 is 1000 to 3000 nM in assay [1], under 100 nM in assay [2], 100 to 1000 nM in assay [3] and under 100 nM in assay [4].
